Values after ≈ are worked out from the molar mass of the structure shown.
Tests used:
[1] = Cytotoxicity against human MDA-MB-231 cells by MTT assay; type: functional, cell-based
[2] = Cytotoxicity against human DU145 cells by MTT assay; type: functional, cell-based; conditions: DU-145
[3] = Cytotoxicity against human PC3 cells by MTT assay; type: functional, cell-based; conditions: PC-3
[4] = Cytotoxicity against human MCF7 cells by MTT assay; type: functional, cell-based
[5] = Cytotoxicity against human MCF7 cells measured after 3 days by MTT assay; type: functional; conditions: MCF7, 72 h
[6] = Cytotoxicity against human A549 cells measured after 3 days by MTT assay; type: functional; conditions: A549, 72 h
[7] = Cytotoxicity against human HepG2 cells after 72 hrs by sulforhodamine-B assay; type: functional, cell-based; conditions: HepG2, 72 h
[8] = Cytotoxicity against human A549 cells by sulforhodamine-B assay; type: functional, cell-based
[9] = Cytotoxicity against human NCI-H157 cells by sulforhodamine-B assay; type: functional, cell-based
[10] = Cytotoxicity against human Calu1 cells by sulforhodamine-B assay; type: functional, cell-based; conditions: Calu-1
[11] = Cytotoxicity against human MCF7 cells measured after 24 hrs by MTT assay; type: functional, cell-based; conditions: MCF7, 24 h
[12] = Cytotoxicity against human HeLa cells measured after 24 hrs by MTT assay; type: functional, cell-based
[13] = target: cGMP-inhibited 3',5'-cyclic phosphodiesterase 3A (Homo sapiens, UniProt Q14432); assay: Inhibition of human PDE3A using fluorescein-labelled cAMP as substrate measured after 60 mins by IMAP TR-FRET assay
cGMP-inhibited 3',5'-cyclic phosphodiesterase 3A, sequence (Q14432 whole entry): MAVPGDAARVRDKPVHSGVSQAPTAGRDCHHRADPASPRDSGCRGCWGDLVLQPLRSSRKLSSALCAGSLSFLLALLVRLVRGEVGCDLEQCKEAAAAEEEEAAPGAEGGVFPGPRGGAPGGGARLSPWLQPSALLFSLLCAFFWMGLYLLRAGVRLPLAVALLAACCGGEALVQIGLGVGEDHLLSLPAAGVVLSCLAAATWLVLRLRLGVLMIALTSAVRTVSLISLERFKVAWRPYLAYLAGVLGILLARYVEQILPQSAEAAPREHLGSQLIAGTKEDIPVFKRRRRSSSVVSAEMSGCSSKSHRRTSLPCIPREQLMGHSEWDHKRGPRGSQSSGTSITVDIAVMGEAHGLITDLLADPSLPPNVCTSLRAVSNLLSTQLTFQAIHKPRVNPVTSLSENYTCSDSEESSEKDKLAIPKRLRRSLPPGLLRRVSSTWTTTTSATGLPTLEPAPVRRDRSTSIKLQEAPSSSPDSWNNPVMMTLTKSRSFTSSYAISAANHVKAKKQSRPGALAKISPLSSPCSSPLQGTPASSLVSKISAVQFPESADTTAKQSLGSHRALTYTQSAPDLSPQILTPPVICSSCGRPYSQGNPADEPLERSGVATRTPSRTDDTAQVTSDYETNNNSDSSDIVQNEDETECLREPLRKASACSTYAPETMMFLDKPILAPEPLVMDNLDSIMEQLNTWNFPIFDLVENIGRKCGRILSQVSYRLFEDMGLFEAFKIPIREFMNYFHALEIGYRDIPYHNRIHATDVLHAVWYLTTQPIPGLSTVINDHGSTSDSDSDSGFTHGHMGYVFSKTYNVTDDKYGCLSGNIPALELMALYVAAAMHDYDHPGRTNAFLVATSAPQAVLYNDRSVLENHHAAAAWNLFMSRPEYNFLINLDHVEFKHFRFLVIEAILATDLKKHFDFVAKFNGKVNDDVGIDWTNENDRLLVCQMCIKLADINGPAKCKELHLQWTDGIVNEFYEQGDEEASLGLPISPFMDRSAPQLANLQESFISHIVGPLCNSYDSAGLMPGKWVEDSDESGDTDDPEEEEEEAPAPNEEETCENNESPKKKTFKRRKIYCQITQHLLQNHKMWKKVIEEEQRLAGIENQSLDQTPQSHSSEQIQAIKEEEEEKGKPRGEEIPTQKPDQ

[14] = Cytotoxicity against human HeLa cells measured after 3 days by MTT assay; type: functional; conditions: 72 h

Clc1cccc(Cl)c1C1=NO[C@@]2(CCCCO2)[C@H]1Br
IC50 [1]: 43 to 56 µM | IC50 [2]: 43 to 56 µM | IC50 [3]: 43 to 56 µM | IC50 [4]: 43 to 56 µM

Cc1ccc2nc3ccccc3c(Nc3cccc(Cl)c3)c2c1
CC50 [5]: 212 µg/mL (≈ 667 µM) | CC50 [6]: 188 µg/mL (≈ 588 µM)

CC(C)NC(=O)c1cccc2c(Cc3cccc(Cl)c3)c3ccccc3nc12
CC50 [6]: 100 µg/mL (≈ 257 µM)

COC(=O)c1ccccc1-n1c(N)c(C#N)c(-c2ccc(N(C)C)cc2)cc1=O
IC50 [7]: 0.02 µM

Cc1onc(-c2ccc([N+](=O)[O-])cc2)c1C(=O)/C=C/c1ccccc1Br
IC50 [8]: 11.1 µM | IC50 [9]: 7.27 µM

Cc1onc(-c2ccc([N+](=O)[O-])cc2)c1C(=O)/C=C/c1ccccc1Cl
IC50 [10]: 2.07 µM | IC50 [9]: 1.35 µM

Clc1ccc(C2=NO[C@@]3(CCCCO3)[C@H]2Br)cc1
IC50 [1]: 43 to 56 µM | IC50 [2]: 43 to 56 µM | IC50 [3]: 43 to 56 µM | IC50 [4]: 43 to 56 µM

CCSc1ncc(-c2cc(-c3ccc(Br)cc3)[nH]c(=N)c2C#N)n1Cc1ccccc1
IC50 [11]: 50.2 µM | IC50 [12]: 34.3 µM | IC50 [13]: 0.00376 µM

CC(C)NC(=O)c1cccc2c(Cc3ccc(C(=O)O)cc3)c3ccccc3nc12
CC50 [14]: 47.5 µg/mL (≈ 119 µM)

COC(=O)c1ccccc1-n1c(N)c(C(N)=O)c(-c2ccc(N(C)C)cc2)cc1=O
IC50 [7]: 1.34 µM

From ChEMBL document CHEMBL3877255, “Structure-activity relationship (SAR) study and design strategies of nitrogen-containing heterocyclic moieties for their anticancer activities” (Eur J Med Chem, 2017)
